Source: patent US20250051263A1, “NOVEL IONIZABLE LIPIDS AND LIPID NANOPARTICLES AND METHODS OF USING THE SAME” (Sail Biomedicines, Inc., priority 2021, published 2025)

Tests used:
[1] = system: Balb/c mice; experiment: In-vivo bioluminescent imaging after IV injection of Fluc mRNA LNP; conditions: for Bioluminescence (IV) Liver / Bioluminescence (IV) Lung / Bioluminescence (IV) Spleen / Bioluminescence (IV) Whole Body / Spleen: Liver Ratio: Example 5 LNP (DOPE 35:16:46.5:2.5), 5 μg FLUC + 5 μg EPO; for Bioluminescence (IV) Liver / Bioluminescence (IV) Lung / Bioluminescence (IV) Spleen / Bioluminescence (IV) Whole Body / Bioluminescence Liver / Bioluminescence Lung / Bioluminescence Spleen: 4-6 hours post-dose; for Bioluminescence (IV) Liver / Bioluminescence (IV) Lung / Bioluminescence (IV) Spleen / Bioluminescence (IV) Whole Body / Spleen: Liver Ratio / Bioluminescence Liver / Bioluminescence Lung / Bioluminescence Spleen: IV; for Spleen: Liver Ratio: ratio of bioluminescence; for Bioluminescence Liver / Bioluminescence Lung / Bioluminescence Spleen: 5 ug Fluc+5 ug EPO mRNA
Protocol: 8-9 week old female Balb/c mice are utilized for bioluminescence-based ionizable lipid screening efforts. Mice are obtained from Jackson Laboratories (JAX Stock: 000651) and allowed to acclimate for one week prior to manipulations. Animals are placed under a heat lamp for a few minutes before introducing them to a restraining chamber. The tail is wiped with alcohol pads (Fisher Scientific) and 100 μL of a lipid nanoparticle composition descrbed above containing 10 ug total mRNA (5 ug Fluc+5 ug EPO) is injected intravenously using a 29 G insulin syringe (Covidien). Any resulting bleeding is stemmed using a sterile gauze pad (Fisher Scientific) and animals are placed back into their home cage. 4-6 hours post-dose, animals are injected with 200 μL of 15 mg/mL D-Luciferin (GoldBio) and placed in an isoflurane induction chamber set to deliver 2.5% isoflurane delivered at an oxygen flow rate of 1-2 liters per min. After 5 minutes of isoflurane exposure, mice are placed in set nose cones inside the IVIS Lumina LT imager (PerkinElmer). LivingImage software is utilized for imaging. Whole body bio-luminescence is captured at auto-exposure after which animals are removed from the IVIS and placed into a CO2 chamber for euthanasia. Cardiac puncture is performed on each animal after placing it in dorsal recumbency, and blood collection is performed using a 25 G insulin syringe (BD). Blood is collected in Lithium-Heparin coated tubes (Fisher Scientific) and immediately placed on ice. Once all blood samples are collected, tubes are spun at 2000 G for 10 minutes using a tabletop centrifuge and plasma is aliquoted into individual Eppendorf tubes (Fisher Scientific) and stored at −80 C for subsequent EPO quantification. EPO levels in plasma are determined using EPO MSD kit (Meso Scale Diagnostics).
8-9 week old female Balb/c mice were utilized for bioluminescence-based ionizable lipid screening efforts. Mice were obtained from Jackson Laboratories (JAX Stock: 000651) and allowed to acclimate for one week prior to manipulations. Animals were placed under a heat lamp for a few minutes before introducing them to a restraining chamber. The tail was wiped with alcohol pads (Fisher Scientific) and, for each LNP composition descrbed above, 100 μL of a lipid nanoparticle composition descrbed above containing 10 μg total mRNA (5 μg Fluc+5 μg EPO, 5 μg Fluc+5 μg Cre, or 5 μg EGFP) was injected intravenously using a 29 G insulin syringe (Covidien).
4-6 hours post-dose, animals were injected with 200 μL of 15 mg/mL D-Luciferin (GoldBio), and placed in set nose cones inside the IVIS Lumina LT imager (PerkinElmer). LivingImage software was utilized for imaging. Whole body bio-luminescence was captured at auto-exposure after which animals are removed from the IVIS and placed into a CO2 chamber for euthanasia. Cardiac puncture was performed on each animal after placing it in dorsal recumbency, and blood collection was performed using a 25 G insulin syringe (BD). Once all blood samples were collected, tubes are spun at 2000 G for 10 minutes using a tabletop centrifuge and plasma was aliquoted into individual Eppendorf tubes (Fisher Scientific) and stored at −80° C. for subsequent EPO quantification. EPO levels in plasma were determined using EPO MSD kit (Meso Scale Diagnostics).

[2] = TNS (pKa) assay, apparent LNP pKa; format: physicochemical; conditions: for pKa (TNS): Example 5 LNP lipid:DOPE:Plant Cholesterol:DMPE-PEG2k 35:16:46.5:2.5, FLUC/EPO 1:1 mRNA, N:P 6:1
Protocol: (protocol adapted from: A Novel Amino Lipid Series for mRNA Delivery: Improved Endosomal Escape and Sustained Pharmacology and Safety in Non-human Primates, Sabnis, Staci et al., Molecular Therapy, Volume 26, Issue 6, 1509-1519) 20 buffers (10 mM sodium phosphate, 10 mM sodium borate, 10 mM sodium citrate, and 150 mM sodium chloride, in Distilled Water) of unique pH values ranging from 3.0-12.0 were prepared using 1M sodium hydroxide and 1M hydrochloric acid. 3.25 uL of LNPs (0.04 mg/mL mRNA, in PBS) were incubated with 2 μL of TNS reagent (0.3 mM, in DMSO) and 90 μL of buffer for each pH value (described above) in a 96-well black-walled plate. Each pH condition was performed in triplicate wells. The TNS fluorescence was measured using a Biotek Cytation Plate reader at excitation/emission wavelengths of 321/445 nm. The fluorescence values were then plotted and fit using a 4-parameter sigmoid curve. From the fit, the pH value yielding the half-maximal fluorescence was calculated and reported as the apparent LNP pKa value.
For pKa measurement, a […] assay was conducted according to those described in Sabnis et al., Molecular Therapy, 26(6):1509-19), which is incorporated herein by reference in its entirety. Briefly, 20 buffers (10 mM sodium phosphate, 10 mM sodium borate, 10 mM sodium citrate, and 150 mM sodium chloride, in distilled Water) of unique pH values ranging from 3.0-12.0 were prepared using 1M sodium hydroxide and 1M hydrochloric acid. 3.25 μL of a LNP composition (0.04 mg/mL mRNA, in PBS) was incubated with 2 μL of TNS reagent (0.3 mM, in DMSO) and 90 μL of buffer for each pH value (described above) in a 96-well black-walled plate. Each pH condition was performed in triplicate wells. The TNS fluorescence was measured using a Biotek Cytation Plate reader at excitation/emission wavelengths of 321/445 nm. The fluorescence values were then plotted and fit using a 4-parameter sigmoid curve. From the fit, the pH value yielding the half-maximal fluorescence was calculated and reported as the apparent LNP pKa value.

[3] = LNP lipid:DOPE:Plant Chol.:DMPE-PEG2k 35:16:46.5:2.5 (Table 1)
[4] = LNP lipid:DSPC:Plant Chol.:DMPE-PEG2k 50:10:38.5:1.5

| Structure (SMILES) | Bioluminescence (IV) Liver [1] | Bioluminescence (IV) Lung [1] | Bioluminescence (IV) Spleen [1] | Bioluminescence (IV) Whole Body [1] | Spleen: Liver Ratio [1] | Bioluminescence Liver [1, 3] | Bioluminescence Lung [1, 3] | Bioluminescence Spleen [1, 3] | Bioluminescence Liver [1, 4] | Bioluminescence Lung [1, 4] | Bioluminescence Spleen [1, 4] | bioluminescence in the liver, spleen, and lung ([1]; used as part of an ionizable lipid scaffold (LNP), Table 1) | pKa (TNS) [2] | pKa ([2]; LNP ionizable lipid:DOPE:Plant Chol.:DMPE-PEG2k 35:16:46.5:2.5 (Table 1)) | pKa ([2]; LNP ionizable lipid:DSPC:Plant Chol.:DMPE-PEG2k 50:10:38.5:1.5) |
| --- | --- | --- | --- | --- | --- | --- | --- | --- | --- | --- | --- | --- | --- | --- | --- |
| C=C(CN(CCCCCCCC(=O)OC(CCCCCCCC)CCCCCCCC)CCCCCC(=O)OCCCCCCCCCCC)CN(CCCCCCCC(=O)OC(CCCCCCCC)CCCCCCCC)CCCCCC(=O)OCCCCCCCCCCC [Compound 2253, 1-octylnonyl 8-[2-[[[8-(1-octylnonoxy)-8-oxo-octyl]-(6-oxo-6-undecoxy-hexyl)amino]methyl]allyl-(6-oxo-6-undecoxy-hexyl)amino]octanoate] | 1.3E+03 | 7.2E+02 | 1.2E+03 | 3.8E+03 | 0.937 | 1.33E+03 | 7.18E+02 | 1.24E+03 | 1.30E+03 | 6.16E+02 | 9.98E+02 | improved bioluminescence | 3.66 | 3.66 | 3.48 |
| CCCCCCCCCC(=O)OCCCCCCCN(CCCCCCCC(=O)OC(CCCCCCCC)CCCCCCCC)CCNC(=O)CCC(=O)NCCN(CCCCCCCOC(=O)CCCCCCCCC)CCCCCCCC(=O)OC(CCCCCCCC)CCCCCCCC [Compound 2272, 7-[2-[[4-[2-[7-decanoyloxyheptyl-[8-(1-octylnonoxy)-8-oxo-octyl]amino]ethylamino]-4-oxo-butanoyl]amino]ethyl-[8-(1-octylnonoxy)-8-oxo-octyl]amino]heptyl decanoate] | 1.8E+07 | 1.5E+04 | 1.0E+06 | 1.3E+08 | 0.055 | – | – | – | – | – | – | – | 6.48 | – | – |
| CCCCCCCCC(CCCCCCCC)OC(=O)CCCCCCCN(CCCCCCCC(=O)OC(CCCCCCCC)CCCCCCCC)CCNC(=O)CCC(=O)NCCN(CCCCCCCC(=O)OC(CCCCCCCC)CCCCCCCC)CCCCCCCC(=O)OC(CCCCCCCC)CCCCCCCC [Compound 2275, 1-octylnonyl 8-[2-[[4-[2-[bis[8-(1-octylnonoxy)-8-oxo-octyl]amino]ethylamino]-4-oxo-butanoyl]amino]ethyl-[8-(1-octylnonoxy)-8-oxo-octyl]amino] octanoate] | 6.8E+07 | 1.6E+04 | 2.3E+05 | 4.8E+08 | 0.003 | – | – | – | – | – | – | – | 6.03 | – | – |
| CCCCCCCCCCCNC(=O)CCCCCN(CCCCCCCC(=O)NC(CCCCCCCC)CCCCCCCC)CCNC(=O)CCC(=O)NCCN(CCCCCCCC(=O)NC(CCCCCCCC)CCCCCCCC)CCCCCC(=O)NCCCCCCCCCCC [Compound 2282, N,N′-bis[2-[[8-(1-octylnonylamino)-8-oxo-octyl]-[6-oxo-6-(undecylamino)hexyl]amino]ethyl]butanediamide] | 5.7E+07 | 3.8E+04 | 5.4E+06 | 7.7E+08 | 0.092 | – | – | – | – | – | – | – | 6.92 | – | – |
| CCCCCCCCC(CCCCCCCC)OC(=O)CCCCCCCN(CCCCCCCC(=O)OC(CCCCCCCC)CCCCCCCC)CCNC(=O)CCCC(=O)NCCN(CCCCCCCC(=O)OC(CCCCCCCC)CCCCCCCC)CCCCCCCC(=O)OC(CCCCCCCC)CCCCCCCC [Compound 2320, 1-octylnonyl 8-[2-[[5-[2-[bis[8-(1-octylnonoxy)-8-oxo-octyl]amino]ethylamino]-5-oxo-pentanoyl]amino]ethyl-[8-(1-octylnonoxy)-8-oxo-octyl]amino]octanoate] | 8.1E+07 | 4.0E+03 | 4.4E+05 | 9.5E+08 | 0.007 | – | – | – | – | – | – | – | 6.07 | – | – |
